Measured values published in PubChem BioAssay AID2060338 (Molecular Pharmacology Branch, DTP, NCI, 2025).

System: 556581-035-R-J1-PDC spheroids with HUVEC/MSC, viability
Assay: Anticancer human tumor 556581-035-R-J1-PDC patient-derived ovarian carcinoma cell line growth inhibition [IpAb]
Conditions: for IC50: curve of first compound; for viability, T/C: stronger effect = lower value
Text: Combinatorial screen of targeted agents with ipatasertib and abemaciclib in multi-cell type tumor spheroids
A high-throughput screen of multi-cell type tumor spheroids was designed to identify active combinations of targeted small molecules and ipatasertib or abemaciclib. Complex spheroids include a stromal component modeled by human endothelial cells (HUVEC) and fibroblasts modeled by human mesenchymal stem cells (MSCs). The concentration ranges selected for each drug and investigational agent were based upon clinically achievable concentrations if the clinical Cmax of the agent was known.
Compounds. The drugs and investigational agents: ipatasertib (NSC767898), abemaciclib(NSC768073), selumetinib (NSC741078), trametinib (758246), adavosertib (NSC754352), everolimus (NSC733504), sapanisertib (NSC764658), vemurafenib (NSC761431), venetoclax (NSC766270), copanlisib (NSC809693), apelisib (NSC765974), palbociblib (NSC758247), vemurafenib (NSC761431), dabrafenib (NSC764134), ravoxertinib (NSC781343), BMS-387032 (NSC767048), sotorasib (NSC818433), talazoparib (NSC767125) and afursertib (NSC778305), were obtained from the National Cancer Institute (NCI) Developmental Therapeutics Program Chemical Repository. The FDA-approved anticancer drug set is available from the NCI Developmental Therapeutics Program. […] The stock solutions were prepared in dimethyl sulfoxide (DMSO, Sigma-Aldrich, St. Louis, MO, cat. D2650) at 800-fold the tested concentration and stored at -70 degrees C prior to their use. All drugs and investigational agents were tested over a range starting from a high concentration at or near the clinical Cmax and decreasing in half-log increments. If the clinical Cmax for an agent had not been determined, the highest concentration tested was 10 microM.
NCI60 Cell Culture. NCI60 cell lines were obtained from the NCI Developmental Therapeutics Program Tumor Repository. For each lot of cells, the Repository performed Applied Biosystems AmpFLSTR Identifiler testing with PCR amplification to confirm consistency with the published Identifier STR profile for each cell line. Cells were kept in continuous culture for no more than 20 passages. The optimal seeding densities for each of the cell lines at each time point assessed were determined prior to performing the concentration response studies. Briefly, the NCI60 human tumor lines were grown as monolayers in RPMI 1640 medium supplemented with 10% FBS and 2 mmol/L L-glutamine.
An additional 9 lines were from the NCI60 cell line panel including MDA-MB-231 breast carcinoma, MDA-MB-468 breast carcinoma, MCF7 breast carcinoma, Hs578T breast carcinoma, MALME-3M melanoma, SK-MEL-2 melanoma, SK-OV-3 ovarian carcinoma, DU-145 prostate carcinoma, PC-3 prostate carcinoma, all cell lines along with major genetic alterations are listed on Table 2. Pooled donor human umbilical vein endothelial cells (HUVEC, Lonza, cat. CC-2519) and human mesenchymal stem cells (hMSC, Lonza, cat. PT-2501) were purchased from Lonza (Walkersville, MD).
PDMR cell lines were grown in complete medium (DC medium): Dulbecco's modified Eagle's medium (DMEM)/F12 supplemented with 5% fetal bovine serum (FBS), 2 mM L-glutamine, 100 U/mL penicillin and 100 µg/ml streptomycin, 0.4 µg/ml hydrocortisone, 10 ng/ml epidermal growth factor (EGF) recombinant human protein, 24 µg/mL adenine, and 0.1 mg/mL primocin. During culture from frozen stock vials, PDMR cells were cultured in the same medium containing 10 µM Y-27632 (see Table 3). The PDCs were cultured in complete DMEM/F12 media without 10 microM Y-27632 dihydrochloride for at least two passages prior to the screen. The pooled donor HUVEC and hMSC were cultured in endothelial cell growth medium 2 (PromoCell, Heidelberg, Germany, cat. C-22011) and mesenchymal stem cell growth medium 2 (PromoCell, cat. C-28009), respectively. For all experiments, HUVEC and hMSC were used at passages </=5.
[…]
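Further: spheroids exposed to compounds for 7 days before readout.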

Compound: Cn1cnc2c(F)c(Nc3ccc(Br)cc3Cl)c(C(=O)NOCCO)cc21 + CC(C)NCC(C(=O)N1CCN(c2ncnc3c2C(C)CC3O)CC1)c1ccc(Cl)cc1
- IC50 (second compound 0.1 µM): 473 nM
- IC50 (second compound 0.316 µM): 218 nM
- IC50 (second compound 1 µM): 55.3 nM
- IC50 (second compound 3.16 µM): < 9.49 nM
- IC50 (second compound 10 µM): < 9.49 nM
- viability, T/C (second compound 0.1 µM, first compound 0.00949 µM): 91.4%
- viability, T/C (second compound 0.1 µM, first compound 0.03 µM): 89.3%
- viability, T/C (second compound 0.1 µM, first compound 0.0949 µM): 81.6%
- viability, T/C (second compound 0.1 µM, first compound 0.3 µM): 55.5%
- viability, T/C (second compound 0.1 µM, first compound 0.949 µM): 38.1%
- viability, T/C (second compound 0.1 µM, first compound 3 µM): 14.7%
- viability, T/C (second compound 0.316 µM, first compound 0.00949 µM): 69.1%
- viability, T/C (second compound 0.316 µM, first compound 0.03 µM): 60.5%
- viability, T/C (second compound 0.316 µM, first compound 0.0949 µM): 61%
- viability, T/C (second compound 0.316 µM, first compound 0.3 µM): 46.4%
- viability, T/C (second compound 0.316 µM, first compound 0.949 µM): 28.6%
- viability, T/C (second compound 0.316 µM, first compound 3 µM): 14.2%
- viability, T/C (second compound 1 µM, first compound 0.00949 µM): 59.7%
- viability, T/C (second compound 1 µM, first compound 0.03 µM): 55.6%
- viability, T/C (second compound 1 µM, first compound 0.0949 µM): 46.1%
- viability, T/C (second compound 1 µM, first compound 0.3 µM): 31.7%
- viability, T/C (second compound 1 µM, first compound 0.949 µM): 20.4%
- viability, T/C (second compound 1 µM, first compound 3 µM): 7.02%
- viability, T/C (second compound 3.16 µM, first compound 0.00949 µM): 45.9%
- viability, T/C (second compound 3.16 µM, first compound 0.03 µM): 40.7%
- viability, T/C (second compound 3.16 µM, first compound 0.0949 µM): 33.9%
- viability, T/C (second compound 3.16 µM, first compound 0.3 µM): 25%
- viability, T/C (second compound 3.16 µM, first compound 0.949 µM): 15.4%
- viability, T/C (second compound 3.16 µM, first compound 3 µM): 6.95%
- viability, T/C (second compound 10 µM, first compound 0.00949 µM): 37.3%
- viability, T/C (second compound 10 µM, first compound 0.03 µM): 38.6%
- viability, T/C (second compound 10 µM, first compound 0.0949 µM): 29.6%
- viability, T/C (second compound 10 µM, first compound 0.3 µM): 21.2%
- viability, T/C (second compound 10 µM, first compound 0.949 µM): 13.8%
- viability, T/C (second compound 10 µM, first compound 3 µM): 3.58%

Compound: Cn1ncnc1[C@H]1c2n[nH]c(=O)c3cc(F)cc(c23)N[C@@H]1c1ccc(F)cc1 + CC(C)NCC(C(=O)N1CCN(c2ncnc3c2C(C)CC3O)CC1)c1ccc(Cl)cc1
- IC50 (second compound 0.1 µM): > 100 nM
- IC50 (second compound 0.316 µM): 94.3 nM
- IC50 (second compound 1 µM): > 100 nM
- IC50 (second compound 3.16 µM): > 100 nM
- IC50 (second compound 10 µM): < 0.316 nM
- viability, T/C (second compound 0.1 µM, first compound 0.000316 µM): 106%
- viability, T/C (second compound 0.1 µM, first compound 0.001 µM): 93%
- viability, T/C (second compound 0.1 µM, first compound 0.00316 µM): 88%
- viability, T/C (second compound 0.1 µM, first compound 0.01 µM): 86.1%
- viability, T/C (second compound 0.1 µM, first compound 0.0316 µM): 82.6%
- viability, T/C (second compound 0.1 µM, first compound 0.1 µM): 64.2%
- viability, T/C (second compound 0.316 µM, first compound 0.000316 µM): 92.7%
- viability, T/C (second compound 0.316 µM, first compound 0.001 µM): 87.5%
- viability, T/C (second compound 0.316 µM, first compound 0.00316 µM): 78%
- viability, T/C (second compound 0.316 µM, first compound 0.01 µM): 59.7%
- viability, T/C (second compound 0.316 µM, first compound 0.0316 µM): 67.2%
- viability, T/C (second compound 0.316 µM, first compound 0.1 µM): 46.8%
- viability, T/C (second compound 1 µM, first compound 0.000316 µM): 70.6%
- viability, T/C (second compound 1 µM, first compound 0.001 µM): 60%
- viability, T/C (second compound 1 µM, first compound 0.00316 µM): 65.9%
- viability, T/C (second compound 1 µM, first compound 0.01 µM): 52.2%
- viability, T/C (second compound 1 µM, first compound 0.0316 µM): 65.4%
- viability, T/C (second compound 1 µM, first compound 0.1 µM): 55.4%
- viability, T/C (second compound 3.16 µM, first compound 0.000316 µM): 51.2%
- viability, T/C (second compound 3.16 µM, first compound 0.001 µM): 54.1%
- viability, T/C (second compound 3.16 µM, first compound 0.00316 µM): 51.5%
- viability, T/C (second compound 3.16 µM, first compound 0.01 µM): 54.8%
- viability, T/C (second compound 3.16 µM, first compound 0.0316 µM): 44.2%
- viability, T/C (second compound 3.16 µM, first compound 0.1 µM): 54.8%
- viability, T/C (second compound 10 µM, first compound 0.000316 µM): 48.6%
- viability, T/C (second compound 10 µM, first compound 0.001 µM): 46.3%
- viability, T/C (second compound 10 µM, first compound 0.00316 µM): 42.9%
- viability, T/C (second compound 10 µM, first compound 0.01 µM): 35.6%
- viability, T/C (second compound 10 µM, first compound 0.0316 µM): 44.2%
- viability, T/C (second compound 10 µM, first compound 0.1 µM): 36.2%
